# In ChEMBL document CHEMBL1201862, “PubChem BioAssay data set” (2004):
# Active and inactive are the calls of the source.
# Legend:
# Cytochrome P450 2C9 = Cytochrome P450 2C9 (Homo sapiens, UniProt P11712)
# Cytochrome P450 2C19 = Cytochrome P450 2C19 (Homo sapiens, UniProt P33261); assay: Cytochrome panel assay with activity outcomes. Panel member name: p450-cyp2c19 Compounds with AC50 equal or less than 10 uM are considered active; format: functional; conditions: read-out: AC50
# Cytochrome P450 3A4 = Cytochrome P450 3A4 (Homo sapiens, UniProt P08684);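 note: CYP3A4 tested as one member of a cytochrome P450 panel screen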
# Cytochrome P450 2D6 = Cytochrome P450 2D6 (Homo sapiens, UniProt P10635);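 note: CYP2D6 member of a cytochrome P450 panel assay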
# [1] = HEp-2 cell cytotoxicity, dose response, cytotoxicity control for RSV inhibitor project, HTS (AID 2410); format: functional; conditions: human respiratory syncytial virus
# Cytochrome P450 1A2 = target: T1, Cytochrome P450 1A2 (Homo sapiens, UniProt P05177);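 note: PubChem cytochrome P450 panel assay, CYP1A2 panel member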
# T1 sequence (P05177 whole entry): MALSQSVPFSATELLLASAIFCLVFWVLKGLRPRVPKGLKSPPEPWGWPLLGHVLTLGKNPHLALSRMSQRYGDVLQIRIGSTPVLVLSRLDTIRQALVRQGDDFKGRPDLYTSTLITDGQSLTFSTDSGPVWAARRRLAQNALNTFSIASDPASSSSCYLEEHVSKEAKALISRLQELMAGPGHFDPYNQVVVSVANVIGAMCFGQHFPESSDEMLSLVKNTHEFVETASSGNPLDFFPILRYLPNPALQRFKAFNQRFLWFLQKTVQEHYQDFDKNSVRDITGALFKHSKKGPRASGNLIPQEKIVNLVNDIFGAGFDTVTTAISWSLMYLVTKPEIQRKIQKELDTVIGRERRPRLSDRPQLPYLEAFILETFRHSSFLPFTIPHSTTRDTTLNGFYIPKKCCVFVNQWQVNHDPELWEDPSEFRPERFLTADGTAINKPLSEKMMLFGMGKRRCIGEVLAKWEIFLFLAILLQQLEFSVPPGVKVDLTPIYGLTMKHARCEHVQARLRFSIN
# cells = format: functional, cell-based
# [2] = target: T2, Replicative DNA helicase DnaB (Mycobacterium tuberculosis, UniProt P9WMR3); assay: DnaB intein splicing inhibitors, dose response, biochemical, cell-free fluorescence (AID 449749); format: functional
# T2 sequence (P9WMR3 whole entry): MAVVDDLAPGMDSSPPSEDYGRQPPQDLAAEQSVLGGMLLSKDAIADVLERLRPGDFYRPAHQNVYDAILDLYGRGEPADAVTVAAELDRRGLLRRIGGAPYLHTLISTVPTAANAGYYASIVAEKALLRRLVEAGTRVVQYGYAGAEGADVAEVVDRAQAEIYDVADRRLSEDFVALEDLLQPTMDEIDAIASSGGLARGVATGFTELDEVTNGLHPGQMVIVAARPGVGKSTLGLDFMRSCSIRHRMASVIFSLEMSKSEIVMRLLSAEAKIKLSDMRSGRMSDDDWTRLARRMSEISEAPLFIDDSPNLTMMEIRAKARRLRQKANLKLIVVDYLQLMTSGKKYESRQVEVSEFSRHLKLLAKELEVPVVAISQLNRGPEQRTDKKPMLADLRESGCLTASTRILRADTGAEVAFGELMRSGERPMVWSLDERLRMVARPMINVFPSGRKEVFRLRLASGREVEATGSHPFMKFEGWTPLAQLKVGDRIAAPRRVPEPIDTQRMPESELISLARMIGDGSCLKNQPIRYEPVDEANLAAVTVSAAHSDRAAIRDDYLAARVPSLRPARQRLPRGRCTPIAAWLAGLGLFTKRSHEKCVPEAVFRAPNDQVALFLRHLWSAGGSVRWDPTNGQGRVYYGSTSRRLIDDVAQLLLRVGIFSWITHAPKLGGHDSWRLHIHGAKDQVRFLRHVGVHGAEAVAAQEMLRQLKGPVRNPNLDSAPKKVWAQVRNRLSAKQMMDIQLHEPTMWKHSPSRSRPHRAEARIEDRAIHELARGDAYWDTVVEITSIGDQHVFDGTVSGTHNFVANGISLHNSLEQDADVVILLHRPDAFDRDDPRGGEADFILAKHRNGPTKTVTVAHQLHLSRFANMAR
# Protein RecA = target: T3, Protein RecA (Mycobacterium tuberculosis, UniProt P9WHJ3); assay: Fluorescence Cell-Free Homogeneous Dose Retest to Identify Inhibitors of RecA-Intein Splicing Activity. [Related pubchem assays (depositor defined):AID2097, AID2223, AID489010, AID492950]; format: functional
# T3 sequence (P9WHJ3 whole entry): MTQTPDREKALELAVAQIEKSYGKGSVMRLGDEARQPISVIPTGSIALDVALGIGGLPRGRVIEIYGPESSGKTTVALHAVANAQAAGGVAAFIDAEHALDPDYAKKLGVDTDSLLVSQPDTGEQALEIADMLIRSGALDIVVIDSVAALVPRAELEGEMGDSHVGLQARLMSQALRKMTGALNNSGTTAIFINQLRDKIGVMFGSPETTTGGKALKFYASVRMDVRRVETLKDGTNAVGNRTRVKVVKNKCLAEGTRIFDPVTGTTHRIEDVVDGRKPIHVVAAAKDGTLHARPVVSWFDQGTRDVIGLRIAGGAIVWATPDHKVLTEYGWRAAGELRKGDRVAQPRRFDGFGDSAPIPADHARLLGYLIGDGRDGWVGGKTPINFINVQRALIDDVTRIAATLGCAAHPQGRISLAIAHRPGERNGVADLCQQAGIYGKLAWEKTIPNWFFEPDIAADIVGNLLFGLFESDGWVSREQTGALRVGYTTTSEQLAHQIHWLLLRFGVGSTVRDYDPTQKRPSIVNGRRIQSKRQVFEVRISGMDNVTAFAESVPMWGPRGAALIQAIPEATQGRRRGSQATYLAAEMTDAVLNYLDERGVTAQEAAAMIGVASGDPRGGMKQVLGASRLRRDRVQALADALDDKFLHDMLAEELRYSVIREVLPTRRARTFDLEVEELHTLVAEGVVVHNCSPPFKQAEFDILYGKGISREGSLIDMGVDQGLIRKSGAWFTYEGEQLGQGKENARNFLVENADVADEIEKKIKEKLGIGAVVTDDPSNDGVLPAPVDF
# Streptokinase A = target: T4, Streptokinase A (Streptococcus pyogenes serotype M1, UniProt P10520); assay: S. pyogenes streptokinase expression inhibitors, potency, dose response, plasminogen activation absorbance, OD405 (AID 1914); format: functional, Streptococcus pyogenes M1 GAS;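 note: secreted streptokinase activity via plasminogen activation per viability signal from cell pellet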
# T4 sequence (P10520 whole entry): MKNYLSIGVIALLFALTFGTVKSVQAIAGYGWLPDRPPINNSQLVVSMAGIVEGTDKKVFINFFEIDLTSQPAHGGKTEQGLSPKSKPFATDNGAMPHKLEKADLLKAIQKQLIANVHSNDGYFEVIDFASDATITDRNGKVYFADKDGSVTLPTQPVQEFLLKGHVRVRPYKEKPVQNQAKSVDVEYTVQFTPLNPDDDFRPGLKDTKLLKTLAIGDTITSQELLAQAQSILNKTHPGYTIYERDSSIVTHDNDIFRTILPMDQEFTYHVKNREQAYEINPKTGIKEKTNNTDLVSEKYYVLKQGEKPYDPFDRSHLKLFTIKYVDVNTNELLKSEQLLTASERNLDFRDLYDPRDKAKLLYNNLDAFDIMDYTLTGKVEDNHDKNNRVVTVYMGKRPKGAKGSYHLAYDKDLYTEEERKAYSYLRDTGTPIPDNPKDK
# Chain of Cytochrome P450 2D6 (P10635 whole entry): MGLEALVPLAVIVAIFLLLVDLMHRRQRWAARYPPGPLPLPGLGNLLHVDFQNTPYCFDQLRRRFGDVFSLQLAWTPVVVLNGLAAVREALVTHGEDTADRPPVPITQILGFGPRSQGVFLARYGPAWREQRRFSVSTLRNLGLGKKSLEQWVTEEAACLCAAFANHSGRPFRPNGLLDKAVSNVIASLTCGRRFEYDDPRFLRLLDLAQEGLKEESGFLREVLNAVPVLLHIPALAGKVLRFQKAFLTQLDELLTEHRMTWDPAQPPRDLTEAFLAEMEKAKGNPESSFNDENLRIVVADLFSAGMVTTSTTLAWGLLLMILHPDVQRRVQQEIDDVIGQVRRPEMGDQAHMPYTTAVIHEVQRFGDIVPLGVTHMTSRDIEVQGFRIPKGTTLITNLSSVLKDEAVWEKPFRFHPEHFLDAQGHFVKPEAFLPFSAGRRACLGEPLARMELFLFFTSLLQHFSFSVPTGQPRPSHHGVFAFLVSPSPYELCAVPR
# Chain of Cytochrome P450 2C9 (P11712 whole entry): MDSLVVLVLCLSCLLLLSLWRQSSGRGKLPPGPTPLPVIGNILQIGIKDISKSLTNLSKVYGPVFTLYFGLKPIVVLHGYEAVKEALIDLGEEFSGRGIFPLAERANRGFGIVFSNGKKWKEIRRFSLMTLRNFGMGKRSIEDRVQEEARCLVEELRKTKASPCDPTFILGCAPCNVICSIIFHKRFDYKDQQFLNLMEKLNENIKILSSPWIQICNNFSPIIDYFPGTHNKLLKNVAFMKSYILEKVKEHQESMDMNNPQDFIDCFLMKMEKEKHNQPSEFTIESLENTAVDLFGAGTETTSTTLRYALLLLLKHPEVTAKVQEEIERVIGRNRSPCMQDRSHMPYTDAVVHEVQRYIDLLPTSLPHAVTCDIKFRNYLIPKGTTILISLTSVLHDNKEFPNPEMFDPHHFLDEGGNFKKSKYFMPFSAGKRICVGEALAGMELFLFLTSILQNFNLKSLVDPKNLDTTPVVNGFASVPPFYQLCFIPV
# Chain of Cytochrome P450 2C19 (P33261 whole entry): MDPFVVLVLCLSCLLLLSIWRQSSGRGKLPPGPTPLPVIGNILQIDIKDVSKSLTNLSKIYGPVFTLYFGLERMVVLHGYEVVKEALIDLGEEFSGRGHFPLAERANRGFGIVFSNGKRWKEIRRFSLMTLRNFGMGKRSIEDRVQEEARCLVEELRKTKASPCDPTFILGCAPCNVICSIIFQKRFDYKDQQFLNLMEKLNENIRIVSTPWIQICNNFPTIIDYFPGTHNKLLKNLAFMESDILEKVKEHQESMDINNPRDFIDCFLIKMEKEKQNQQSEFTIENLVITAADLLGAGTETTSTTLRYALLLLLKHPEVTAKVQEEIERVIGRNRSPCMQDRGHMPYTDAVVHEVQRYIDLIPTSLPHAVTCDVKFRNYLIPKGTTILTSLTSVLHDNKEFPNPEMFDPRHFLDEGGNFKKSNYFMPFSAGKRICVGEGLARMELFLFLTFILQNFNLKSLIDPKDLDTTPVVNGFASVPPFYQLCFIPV
# Chain of Cytochrome P450 3A4 (P08684 whole entry): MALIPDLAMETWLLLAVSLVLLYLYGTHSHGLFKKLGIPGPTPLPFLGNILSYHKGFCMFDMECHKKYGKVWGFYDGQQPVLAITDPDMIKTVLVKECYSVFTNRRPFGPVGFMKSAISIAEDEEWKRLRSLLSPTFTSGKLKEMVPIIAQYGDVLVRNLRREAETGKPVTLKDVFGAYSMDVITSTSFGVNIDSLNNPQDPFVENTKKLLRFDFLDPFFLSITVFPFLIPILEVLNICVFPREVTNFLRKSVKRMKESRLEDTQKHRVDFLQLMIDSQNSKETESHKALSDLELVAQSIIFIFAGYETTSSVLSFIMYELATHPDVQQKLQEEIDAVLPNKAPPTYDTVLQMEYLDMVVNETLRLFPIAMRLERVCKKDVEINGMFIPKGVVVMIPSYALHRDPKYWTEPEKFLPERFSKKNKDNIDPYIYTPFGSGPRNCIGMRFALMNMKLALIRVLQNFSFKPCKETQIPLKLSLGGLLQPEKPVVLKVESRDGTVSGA
compound,measurement,setting,value
O=C(CN1C(=O)NC2(CCCCCC2)C1=O)N1CCN(S(=O)(=O)c2ccc(Cl)cc2)CC1,AC50,Cytochrome P450 2C9,17.8 µM (inconclusive)
same,AC50,Cytochrome P450 2C19,20 µM (inconclusive)
COC(=O)Cn1c(C(=O)N(C)C)cc2c1C[C@H]1CN(C(=O)c3ccccc3)[C@@](Cc3ccc(OC)cc3)(C(=O)OC)[C@@H]21,AC50,Cytochrome P450 2C9,12.6 µM (inconclusive)
same,AC50,Cytochrome P450 2C19,20 µM (inconclusive)
CCc1cc2c(c(CC)n1)CCC(=O)N2Cc1ccc(-c2ccccc2-c2nnn[nH]2)cc1,AC50,Cytochrome P450 2C9,25.1 µM (inconclusive)
same,AC50,Cytochrome P450 3A4,20 µM (inconclusive)
same,AC50,Cytochrome P450 2D6,10 µM (inconclusive)
CC(C)C(NC(=O)C1CCCCC1)C(=O)NC1CCN(Cc2ccccc2)CC1 (stereo not drawn),AC50,Cytochrome P450 2C19,3.55 µM (inconclusive)
COc1ccc(-c2nc3n(c2Br)CCC3)cc1,CC50,[1],30.9 µM (active)
Cc1ncsc1C(=O)N1N=C2/C(=C/c3ccccc3)CCCC2C1c1ccccc1 (stereo not drawn),AC50,Cytochrome P450 1A2,17.8 µM (inconclusive)
same,AC50,Cytochrome P450 2C19,17.8 µM (inconclusive)
CCOc1c2ccc(C(=O)NCc3ccc4c(c3)OCO4)cc2nn1CC,AC50,Cytochrome P450 1A2,8.91 µM (inconclusive)
same,AC50,Cytochrome P450 2D6,15.8 µM (inconclusive)
Cc1ccc(Nc2nc(Cl)c(C=O)s2)cc1Cl,CC50,[1],19.2 µM (active)
O=c1c(-c2cccs2)nc2cnc(Oc3ccccc3)nc2n1C1CC1,AC50,Cytochrome P450 2C19,1.58 µM (inconclusive)
CC(Oc1ccc2c3c(c(=O)oc2c1)CCCC3)C(=O)NCC(O)c1ccccc1 (stereo not drawn),EC50,cells,> 350 µM (not active)
Nc1nc(Cl)cc(N2CCOCC2)n1,AC50,Cytochrome P450 1A2,15.8 µM (inconclusive)
same,AC50,Cytochrome P450 2D6,39.8 µM (inconclusive)
Cc1n[nH]c2c1C(c1ccsc1C)C(C#N)=C(N)O2 (stereo not drawn),AC50,[2],10.1 µM (active)
same,EC50,Protein RecA,3.77 µM (active)
CC12CC(NC(=O)N1c1cccc(C(=O)NCc3ccccc3)c1)c1ccccc1O2 (stereo not drawn),AC50,Cytochrome P450 1A2,25.1 µM (inconclusive)
same,AC50,Cytochrome P450 2D6,28.2 µM (inconclusive)
COc1ccc(NC(=O)CSc2nc3cc[nH]cc-3n2)c(OC)c1,CC50,[1],33.1 µM (active)
Cc1ccc(-n2nnc3c(SCC(=O)NCC4CCCO4)ncnc32)cc1 (stereo not drawn),AC50,[2],4.72 µM (active)
same,EC50,Protein RecA,4.23 µM (active)
N#CCCn1[nH]c(-c2ccccc2)cc1=O,AC50,[2],5.47 µM (active)
same,EC50,Protein RecA,3.32 µM (active)
O=C1c2[nH]nc(-c3ccccc3O)c2C(c2cccc(Cl)c2)N1Cc1ccco1 (stereo not drawn),AC50,[2],66.5 µM (active)
same,EC50,Streptokinase A,15.8 µM (active)
same,EC50,Protein RecA,> 380 µM (inconclusive)
NC(=O)CNC(=O)[C@@H]1CC2(CC(c3cccc([N+](=O)[O-])c3)=NO2)CN1C(=O)c1ccccc1 (stereo partly drawn),AC50,Cytochrome P450 2C9,0.708 µM (inconclusive)
same,AC50,Cytochrome P450 2D6,31.6 µM (inconclusive)
O=C(c1ccccc1)N1CCCC(c2ccc(Cl)cc2)=N1,CC50,[1],42.4 µM (active)
